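1) Cells in 96-well plates. 2) Compound, 48 h, 5 concentrations. 3) Linear interpolation between surrounding doses. 4) Unreached endpoint = highest concentration. The concentration for 50% growth inhibition is given as GI50.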 Activity calls are given as the source filed them. Rule as the data show it: active = GI50 up to about 1.1 µM and inactive = higher.
Key:
Assay in all cases: growth of human tumour cells (NCI), 48 h
HCC 2998 = test system: HCC 2998
CAKI-1 = test system: CAKI-1
ACHN = test system: ACHN
Malme-3M = test system: Malme-3M
NCI-H226 = test system: NCI-H226
M14 = test system: M14
KM12 = test system: KM12
SF-268 = test system: SF-268
HCT-15 = test system: HCT-15
OVCAR-4 = test system: OVCAR-4
A498 = test system: A498
RXF 393 = test system: RXF 393
HT-29 = test system: HT-29
SR = test system: SR
SF-539 = test system: SF-539
SK-MEL-5 = test system: SK-MEL-5
LXFL 529 = test system: LXFL 529
SNB-78 = test system: SNB-78
UACC-62 = test system: UACC-62
DLD-1 = test system: DLD-1
KM-20L2 = test system: KM-20L2
XF498 = test system: XF498
SNB-75 = test system: SNB-75
A549 = test system: A549
OVCAR-5 = test system: OVCAR-5
OVCAR-8 = test system: OVCAR-8
DMS-273 = test system: DMS-273
OVCAR-3 = test system: OVCAR-3
RXF 631 = test system: RXF 631
HOP-92 = test system: HOP-92
CCRF-CEM = test system: CCRF-CEM
LOX IMVI = test system: LOX IMVI
SK-MEL-28 = test system: SK-MEL-28
SK-OV-3 = test system: SK-OV-3
SK-MEL-2 = test system: SK-MEL-2
NCI-H460 = test system: NCI-H460
SW-620 = test system: SW-620
K562 = test system: K562
U-251 = test system: U-251
MOLT-4 = test system: MOLT-4
M19-MEL = test system: M19-MEL
TK-10 = test system: TK-10
NCI-H23 = test system: NCI-H23
HL-60 = test system: HL-60
IGROV-1 = test system: IGROV-1
EKVX = test system: EKVX
NCI-H522 = test system: NCI-H522
COLO 205 = test system: COLO 205
HOP-62 = test system: HOP-62
UO-31 = test system: UO-31
SNB-19 = test system: SNB-19
RPMI-8226 = test system: RPMI-8226
786-0 = test system: 786-0
SF-295 = test system: SF-295
HOP-18 = test system: HOP-18
MDA-N = test system: MDA-N
DMS-114 = test system: DMS-114
SN12C = test system: SN12C
MDA-MB-231 = test system: MDA-MB-231
DU-145 = test system: DU-145
T47D = test system: T47D
UACC-257 = test system: UACC-257
Hs-578T = test system: Hs-578T
BT-549 = test system: BT-549
MCF7 = test system: MCF7
PC-3 = test system: PC-3
HCT-116 = test system: HCT-116

Question: `CNC(=O)CN(CC(N)=O)C(N)=O` was tested. Which GI50 (HCC 2998) did it give?
Answer: > 100 µM (inactive)

Question: What about the GI50 (CAKI-1) of the same molecule?
Answer: > 100 µM (inactive)

Question: What about the GI50 (ACHN) of the same molecule?
Answer: > 100 µM (inactive)

Question: And the GI50 (Malme-3M)?
Answer: > 100 µM (inactive)

Question: And the GI50 (NCI-H226)?
Answer: > 100 µM (inactive)

Question: What about the GI50 (M14) of the same molecule?
Answer: > 100 µM (inactive)

Question: And the GI50 (KM12)?
Answer: > 100 µM (inactive)

Question: What about the GI50 (SF-268) of the same molecule?
Answer: > 100 µM (inactive)

Question: What about the GI50 (HCT-15) of the same molecule?
Answer: > 100 µM

Question: What about the GI50 (OVCAR-4) of the same molecule?
Answer: > 100 µM (inactive)

Question: And the GI50 (A498)?
Answer: > 100 µM (inactive)

Question: What about the GI50 (RXF 393) of the same molecule?
Answer: > 100 µM (inactive)

Question: What about the GI50 (HT-29) of the same molecule?
Answer: > 100 µM (inactive)

Question: What about the GI50 (SR) of the same molecule?
Answer: > 100 µM (inactive)

Question: And the GI50 (SF-539)?
Answer: > 100 µM (inactive)

Question: What about the GI50 (SK-MEL-5) of the same molecule?
Answer: > 100 µM (inactive)

Question: What about the GI50 (LXFL 529) of the same molecule?
Answer: > 100 µM (inactive)

Question: And the GI50 (SNB-78)?
Answer: > 100 µM (inactive)

Question: And the GI50 (UACC-62)?
Answer: > 100 µM (inactive)

Question: What about the GI50 (DLD-1) of the same molecule?
Answer: > 100 µM (inactive)

Question: What about the GI50 (KM-20L2) of the same molecule?
Answer: > 100 µM (inactive)

Question: What about the GI50 (XF498) of the same molecule?
Answer: > 100 µM (inactive)

Question: What about the GI50 (SNB-75) of the same molecule?
Answer: 77.3 µM (inactive)

Question: What about the GI50 (A549) of the same molecule?
Answer: > 100 µM (inactive)

Question: And the GI50 (OVCAR-5)?
Answer: > 100 µM (inactive)

Question: What about the GI50 (OVCAR-8) of the same molecule?
Answer: > 100 µM (inactive)

Question: And the GI50 (DMS-273)?
Answer: > 100 µM (inactive)

Question: What about the GI50 (OVCAR-3) of the same molecule?
Answer: > 100 µM (inactive)

Question: What about the GI50 (RXF 631) of the same molecule?
Answer: > 100 µM (inactive)

Question: What about the GI50 (HOP-92) of the same molecule?
Answer: > 100 µM (inactive)

Question: And the GI50 (CCRF-CEM)?
Answer: > 100 µM (inactive)

Question: And the GI50 (LOX IMVI)?
Answer: > 100 µM (inactive)

Question: And the GI50 (SK-MEL-28)?
Answer: > 100 µM (inactive)

Question: What about the GI50 (SK-OV-3) of the same molecule?
Answer: > 100 µM (inactive)

Question: And the GI50 (SK-MEL-2)?
Answer: > 100 µM (inactive)

Question: And the GI50 (NCI-H460)?
Answer: > 100 µM (inactive)

Question: And the GI50 (SW-620)?
Answer: > 100 µM (inactive)

Question: And the GI50 (K562)?
Answer: > 100 µM (inactive)

Question: What about the GI50 (U-251) of the same molecule?
Answer: > 100 µM (inactive)

Question: What about the GI50 (MOLT-4) of the same molecule?
Answer: > 100 µM (inactive)

Question: And the GI50 (M19-MEL)?
Answer: > 100 µM (inactive)

Question: And the GI50 (TK-10)?
Answer: > 100 µM (inactive)

Question: What about the GI50 (NCI-H23) of the same molecule?
Answer: > 100 µM (inactive)

Question: And the GI50 (HL-60)?
Answer: > 100 µM (inactive)

Question: What about the GI50 (IGROV-1) of the same molecule?
Answer: > 100 µM (inactive)

Question: And the GI50 (EKVX)?
Answer: > 100 µM (inactive)

Question: What about the GI50 (NCI-H522) of the same molecule?
Answer: > 100 µM (inactive)

Question: What about the GI50 (COLO 205) of the same molecule?
Answer: > 100 µM (inactive)

Question: And the GI50 (HOP-62)?
Answer: > 100 µM (inactive)

Question: What about the GI50 (UO-31) of the same molecule?
Answer: > 100 µM (inactive)

Question: And the GI50 (SNB-19)?
Answer: > 100 µM (inactive)

Question: And the GI50 (RPMI-8226)?
Answer: > 100 µM (inactive)

Question: And the GI50 (786-0)?
Answer: > 100 µM (inactive)

Question: And the GI50 (SF-295)?
Answer: > 100 µM (inactive)

Question: With `Cc1ccc(C(=O)N2CCN(C(=O)c3ccc(C)cc3)c3ccccc32)cc1` as the molecule, how does the GI50 (HCC 2998) read?
Answer: 6.58 µM (inactive)

Question: And the GI50 (CAKI-1)?
Answer: 7 µM (inactive)

Question: And the GI50 (ACHN)?
Answer: 9.59 µM (inactive)

Question: What about the GI50 (Malme-3M) of the same molecule?
Answer: 2.84 µM (inactive)

Question: What about the GI50 (M14) of the same molecule?
Answer: 4.57 µM (inactive)

Question: And the GI50 (KM12)?
Answer: 3.29 µM (inactive)

Question: And the GI50 (SF-268)?
Answer: 6.85 µM (inactive)

Question: What about the GI50 (HCT-15) of the same molecule?
Answer: 1.94 µM

Question: And the GI50 (OVCAR-4)?
Answer: 11.4 µM (inactive)

Question: What about the GI50 (A498) of the same molecule?
Answer: 5.2 µM (inactive)

Question: What about the GI50 (RXF 393) of the same molecule?
Answer: 2.24 µM (inactive)

Question: What about the GI50 (HT-29) of the same molecule?
Answer: 2.8 µM (inactive)

Question: And the GI50 (SR)?
Answer: 0.547 µM (active)

Question: What about the GI50 (SF-539) of the same molecule?
Answer: 2.42 µM (inactive)

Question: What about the GI50 (SK-MEL-5) of the same molecule?
Answer: 3.15 µM (inactive)

Question: What about the GI50 (LXFL 529) of the same molecule?
Answer: 6.5 µM (inactive)

Question: And the GI50 (SNB-78)?
Answer: 6.97 µM (inactive)

Question: And the GI50 (UACC-62)?
Answer: 2.01 µM (inactive)

Question: And the GI50 (DLD-1)?
Answer: 4.23 µM (inactive)

Question: And the GI50 (KM-20L2)?
Answer: 3.28 µM (inactive)

Question: And the GI50 (HOP-18)?
Answer: 17.7 µM (inactive)

Question: And the GI50 (MDA-N)?
Answer: 0.274 µM (active)

Question: What about the GI50 (DMS-114) of the same molecule?
Answer: 3.78 µM (inactive)

Question: And the GI50 (XF498)?
Answer: 4.93 µM (inactive)

Question: And the GI50 (SNB-75)?
Answer: 4.68 µM (inactive)

Question: What about the GI50 (A549) of the same molecule?
Answer: 7.48 µM (inactive)

Question: What about the GI50 (OVCAR-5) of the same molecule?
Answer: > 63.7 µM (inactive)

Question: And the GI50 (SN12C)?
Answer: 6.92 µM (inactive)

Question: What about the GI50 (MDA-MB-231) of the same molecule?
Answer: 23.7 µM (inactive)

Question: And the GI50 (OVCAR-8)?
Answer: 6.25 µM (inactive)

Question: What about the GI50 (DMS-273) of the same molecule?
Answer: 2.05 µM (inactive)

Question: What about the GI50 (DU-145) of the same molecule?
Answer: 3.35 µM (inactive)

Question: What about the GI50 (OVCAR-3) of the same molecule?
Answer: 2.74 µM (inactive)

Question: What about the GI50 (T47D) of the same molecule?
Answer: 6.43 µM (inactive)

Question: And the GI50 (UACC-257)?
Answer: 4.56 µM (inactive)

Question: What about the GI50 (HOP-92) of the same molecule?
Answer: 16.4 µM (inactive)

Question: And the GI50 (CCRF-CEM)?
Answer: 1.6 µM (inactive)

Question: And the GI50 (LOX IMVI)?
Answer: 6.44 µM (inactive)

Question: And the GI50 (SK-MEL-28)?
Answer: 5.2 µM (inactive)

Question: What about the GI50 (SK-OV-3) of the same molecule?
Answer: 2.89 µM (inactive)

Question: And the GI50 (SK-MEL-2)?
Answer: 1.94 µM (inactive)

Question: And the GI50 (Hs-578T)?
Answer: 2.47 µM (inactive)

Question: What about the GI50 (NCI-H460) of the same molecule?
Answer: 4.14 µM (inactive)

Question: And the GI50 (SW-620)?
Answer: 2.93 µM (inactive)

Question: And the GI50 (K562)?
Answer: 2.55 µM (inactive)

Question: And the GI50 (U-251)?
Answer: 1.9 µM (inactive)

Question: And the GI50 (MOLT-4)?
Answer: 3.07 µM (inactive)

Question: What about the GI50 (M19-MEL) of the same molecule?
Answer: 4.39 µM (inactive)

Question: And the GI50 (BT-549)?
Answer: > 100 µM (inactive)

Question: What about the GI50 (TK-10) of the same molecule?
Answer: 10 µM (inactive)

Question: And the GI50 (NCI-H23)?
Answer: 4.52 µM (inactive)

Question: What about the GI50 (MCF7) of the same molecule?
Answer: 2.48 µM (inactive)

Question: What about the GI50 (PC-3) of the same molecule?
Answer: 2.86 µM (inactive)

Question: What about the GI50 (HL-60) of the same molecule?
Answer: 0.767 µM (active)

Question: And the GI50 (IGROV-1)?
Answer: 4.91 µM (inactive)

Question: What about the GI50 (EKVX) of the same molecule?
Answer: 20.2 µM (inactive)

Question: What about the GI50 (NCI-H522) of the same molecule?
Answer: 1.85 µM (inactive)

Question: And the GI50 (HCT-116)?
Answer: 3.04 µM (inactive)

Question: And the GI50 (COLO 205)?
Answer: 3.39 µM (inactive)

Question: What about the GI50 (HOP-62) of the same molecule?
Answer: 6.43 µM (inactive)

Question: What about the GI50 (UO-31) of the same molecule?
Answer: 4.76 µM (inactive)

Question: What about the GI50 (SNB-19) of the same molecule?
Answer: 5.77 µM (inactive)

Question: What about the GI50 (RPMI-8226) of the same molecule?
Answer: 3.03 µM (inactive)

Question: And the GI50 (786-0)?
Answer: 3.41 µM (inactive)

Question: What about the GI50 (SF-295) of the same molecule?
Answer: 3.09 µM (inactive)
